Source: patent US10988477B2 (Merck Patent GmbH, priority 2018, dated 2021)
Like-named read-outs stand apart in the source and are kept apart here.

Assays:
GCN2 kinase = GCN2 kinase (Homo sapiens, UniProt Q9P2K8); experiment: GCN2 enzyme inhibition assay (Transcreener ADP2 fluorescence polarization); type: biochemical; conditions: 280 μM ATP
Summary of the method: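 4 nM GCN2 + 200 μM (RS)7 + compound (0–8 μM), 10 min preinc.; start with ATP (280 μM final); 1 h, 25 °C; pH 7.5 Tris/NaCl/MgCl2/DTT; ADP FP readout; IC50, Ki(app) via tight-binding fit.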

[1] = biological target: intracellular GCN2 (phosphorylation of the GCN2 substrate eIF2α) (Homo sapiens, UniProt Q9P2K8); experiment: GCN2 cellular inhibition assay (AlphaScreen SureFire P-eIF2α Ser51, borrelidin-treated U2OS cells); type: cell-based
intracellular GCN2 (phosphorylation of the GCN2 substrate eIF2α), sequence (Q9P2K8 whole entry): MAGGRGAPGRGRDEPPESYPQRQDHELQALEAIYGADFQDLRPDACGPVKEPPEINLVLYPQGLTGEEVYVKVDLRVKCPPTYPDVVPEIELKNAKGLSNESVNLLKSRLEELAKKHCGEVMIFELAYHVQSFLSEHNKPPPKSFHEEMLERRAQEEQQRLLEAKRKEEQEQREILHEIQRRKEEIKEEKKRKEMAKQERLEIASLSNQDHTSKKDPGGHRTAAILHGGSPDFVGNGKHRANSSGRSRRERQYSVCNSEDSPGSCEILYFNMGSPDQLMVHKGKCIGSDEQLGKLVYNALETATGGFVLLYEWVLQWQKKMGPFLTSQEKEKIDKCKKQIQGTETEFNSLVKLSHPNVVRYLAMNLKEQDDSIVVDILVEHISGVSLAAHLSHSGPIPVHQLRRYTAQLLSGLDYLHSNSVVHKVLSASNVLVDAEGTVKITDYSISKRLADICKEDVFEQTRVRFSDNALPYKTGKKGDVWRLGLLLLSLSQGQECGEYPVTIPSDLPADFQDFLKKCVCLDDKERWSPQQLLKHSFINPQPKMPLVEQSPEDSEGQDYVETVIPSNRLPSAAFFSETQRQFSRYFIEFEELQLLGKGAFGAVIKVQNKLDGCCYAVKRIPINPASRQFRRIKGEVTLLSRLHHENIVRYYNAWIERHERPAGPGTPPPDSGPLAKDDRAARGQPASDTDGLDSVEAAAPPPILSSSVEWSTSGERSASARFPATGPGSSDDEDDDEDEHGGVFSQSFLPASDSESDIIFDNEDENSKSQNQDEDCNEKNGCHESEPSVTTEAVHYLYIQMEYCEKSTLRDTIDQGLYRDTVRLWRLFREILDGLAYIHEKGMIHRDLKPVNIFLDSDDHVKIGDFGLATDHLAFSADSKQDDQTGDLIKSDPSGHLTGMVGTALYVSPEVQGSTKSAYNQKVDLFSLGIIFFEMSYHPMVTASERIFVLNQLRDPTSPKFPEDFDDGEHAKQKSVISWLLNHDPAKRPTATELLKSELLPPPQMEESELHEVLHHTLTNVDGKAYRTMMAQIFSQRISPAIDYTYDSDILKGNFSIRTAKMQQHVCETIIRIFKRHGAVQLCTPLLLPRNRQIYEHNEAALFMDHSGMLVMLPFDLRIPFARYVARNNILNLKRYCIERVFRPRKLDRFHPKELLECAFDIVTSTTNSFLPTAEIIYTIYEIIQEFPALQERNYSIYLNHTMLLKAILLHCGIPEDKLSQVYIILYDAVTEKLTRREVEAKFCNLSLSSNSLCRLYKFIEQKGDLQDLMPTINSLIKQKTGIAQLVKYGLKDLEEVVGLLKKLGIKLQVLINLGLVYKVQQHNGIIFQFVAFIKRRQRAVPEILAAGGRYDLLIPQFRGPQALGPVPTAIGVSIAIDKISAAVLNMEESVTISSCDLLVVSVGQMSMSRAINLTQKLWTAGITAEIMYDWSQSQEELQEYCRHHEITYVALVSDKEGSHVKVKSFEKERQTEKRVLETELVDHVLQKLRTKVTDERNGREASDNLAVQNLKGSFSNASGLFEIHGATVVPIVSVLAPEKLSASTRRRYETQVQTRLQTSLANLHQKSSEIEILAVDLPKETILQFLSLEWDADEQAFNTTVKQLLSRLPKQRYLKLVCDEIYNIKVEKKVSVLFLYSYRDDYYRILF
Summary of the method: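 Borrelidin at 10 μM is added to U2OS cells immediately after compound (4-fold dilution series, 40 μM top final) for 1 h at 37 °C. Phosphorylated eIF2α Ser51 in lysates is quantified by AlphaScreen and expressed as percent inhibition against borrelidin-stimulated controls.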

[2] = compounds of Formula II, 4 nM GCN2 kinase
[3] = compounds of Formula II, biomarker assay, phosphorylated eIF2α Ser51 in borrelidin-treated U2OS cells
[4] = Enzyme activity for compounds of Formula IV, Ki(app), 25° C.
[5] = compounds of Formula IV, biomarker assay, phosphorylated eIF2α Ser51 in borrelidin-treated U2OS cells

GCN2 kinase, sequence (Q9P2K8 whole entry): as above

Row | Ki (GCN2 kinase; [2]) | IC50 [1, 3] | Structure (SMILES) | further results
1 | 0.01 to 1 µM | > 5 µM | CC1C(CO)OCCN1c1cc(-c2cnc3ccc(C(F)F)nn23)ncn1 (single isomer, unassigned) [II-414, (4-(6-(6-(Difluoromethyl)imidazo[1,2-b]pyridazin-3-yl)pyrimidin-4-yl)-3-methylmorpholin-2-yl)methanol] | 
2 |  |  | CC1CN(c2nccc(-c3cnc4cnc(C(F)(F)F)cn34)n2)CC(c2cn[nH]c2)O1 (single isomer, unassigned) [IV-199, 2-Methyl-6-(1H-pyrazol-4-yl)-4-(4-(6-(trifluoromethyl)imidazo[1,2-a]pyrazin-3-yl)pyrimidin-2-yl)morpholine] | Ki (GCN2 kinase; [4]): 0.01 to 0.1 µM; IC50 [1, 5]: 0.5 to 5 µM
3 | 0.01 to 1 µM | 0.5 to 5 µM | CC1(C)CN(c2cc(-c3cnc4ccc(C(F)F)nn34)ncn2)C[C@H](CNS(C)(=O)=O)O1 [II-257, (R)—N-((4-(6-(6-(Difluoromethyl)imidazo[1,2-b]pyridazin-3-yl)pyrimidin-4-yl)-6,6-dimethylmorpholin-2-yl)methyl)methanesulfonamide] | 
4 | 0.01 to 1 µM | 0.5 to 5 µM | C[C@H]1CO[C@@H](CNS(C)(=O)=O)CN1c1cc(-c2cnc3ccc(C(F)F)nn23)ncn1 [II-234, N-(((2R,5S)-4-(6-(6-(difluoromethyl)imidazo[1,2-b]pyridazin-3-yl)pyrimidin-4-yl)-5-methylmorpholin-2-yl)methyl)methanesulfonamide] | 
5 | 0.01 to 1 µM | > 5 µM | FC(F)c1ccc2ncc(-c3cc(N4CCCCC4)ncn3)n2n1 [II-308, 6-(Difluoromethyl)-3-(6-(piperidin-1-yl)pyrimidin-4-yl)imidazo[1,2-b]pyridazine] | 
6 | 0.01 to 1 µM | > 5 µM | FC(F)c1ccc2ncc(-c3ccnc(N4CCOCC4)c3)n2n1 [II-76, 4-(4-(6-(Difluoromethyl)imidazo[1,2-b]pyridazin-3-yl)pyridin-2-yl)morpholine] | 
7 | < 0.01 µM | < 0.5 µM | CC1CN(c2cc(-c3cnc4ccc(C(F)F)nn34)ncn2)CC(CNS(C)(=O)=O)O1 (stereo not drawn) [II-32, N-((4-(6-(6-(Difluoromethyl)imidazo[1,2-b]pyridazin-3-yl)pyrimidin-4-yl)-6-methylmorpholin-2-yl)methyl)methanesulfonamide] | 
8 | 0.01 to 1 µM | 0.5 to 5 µM | CS(=O)(=O)CCC1CCCN(c2cc(-c3cnc4ccc(C(F)F)nn34)ccn2)C1 (stereo not drawn) [II-128, 6-(Difluoromethyl)-3-(2-(3-(2-(methylsulfonyl)ethyl)piperidin-1-yl)pyridin-4-yl)imidazo[1,2-b]pyridazine] | 
9 | 0.01 to 1 µM | > 5 µM | CNS(=O)(=O)C1CCCN(c2cc(-c3cnc4ccc(C(F)F)nn34)ncn2)C1 (stereo not drawn) [II-480, 1-(6-(6-(Difluoromethyl)imidazo[1,2-b]pyridazin-3-yl)pyrimidin-4-yl)-N-methylpiperidine-3-sulfonamide] | 
10 | 0.01 to 1 µM | > 5 µM | C[C@H]1CN(c2cc(-c3cnc4ccc(C(C)(F)F)nn34)ncn2)C[C@@H](CNS(C)(=O)=O)C1(F)F [II-321, N-(((3S,5S)-1-(6-(6-(1,1-Difluoroethyl)imidazo[1,2-b]pyridazin-3-yl)pyrimidin-4-yl)-4,4-difluoro-5-methylpiperidin-3-yl)methyl)methanesulfonamide] | 
11 | < 0.01 µM | < 0.5 µM | CC1C(CNS(C)(=O)=O)NCCN1c1cc(-c2cnc3ccc(C(F)(F)F)nn23)ncn1 (stereo not drawn) [II-466, N-((3-Methyl-4-(6-(6-(trifluoromethyl)imidazo[1,2-b]pyridazin-3-yl)pyrimidin-4-yl)piperazin-2-yl)methyl)methanesulfonamide] | 
12 | < 0.01 µM | < 0.5 µM | COC1CCN(c2cc(-c3cnc4ccc(C(F)F)nn34)ncn2)CC1CNS(C)(=O)=O (stereo not drawn) [II-390, N-((1-(6-(6-(Difluoromethyl)imidazo[1,2-b]pyridazin-3-yl)pyrimidin-4-yl)-4-methoxypiperidin-3-yl)methyl)methanesulfonamide] | 
13 |  |  | C[C@@H]1CN(c2ccnc(-c3cnc4cnc(C(F)(F)F)cn34)n2)C[C@H](c2cn[nH]c2)O1 (racemic) [IV-12, Cis-2-Methyl-6-(1H-pyrazol-4-yl)-4-(2-(6-(trifluoromethyl)imidazo[1,2-a]pyrazin-3-yl)pyrimidin-4-yl)morpholine] | Ki (GCN2 kinase; [4]): < 0.01 µM; IC50 [1, 5]: < 0.5 µM
14 |  |  | CS(=O)(=O)NC1CCCN(c2ccnc(-c3cnc4cnc(C(F)F)cn34)n2)C1 (stereo not drawn) [IV-169, N-(1-(2-(6-(Difluoromethyl)imidazo[1,2-a]pyrazin-3-yl)pyrimidin-4-yl)piperidin-3-yl)methanesulfonamide] | Ki (GCN2 kinase; [4]): 0.1 to 1 µM; IC50 [1, 5]: > 5 µM
15 |  |  | OCCC1CCN(c2ccnc(-c3cnc4cnc(C(F)(F)F)cn34)n2)CC1 [IV-442, 2-(1-(2-(6-(Trifluoromethyl)imidazo[1,2-a]pyrazin-3-yl)pyrimidin-4-yl)piperidin-4-yl)ethan-1-ol] | Ki (GCN2 kinase; [4]): 0.1 to 1 µM; IC50 [1, 5]: > 5 µM
16 | 0.01 to 1 µM | 0.5 to 5 µM | CS(=O)(=O)NC1CCCN(c2cc(-c3cnc4ccc(C(F)(F)F)nn34)ccn2)C1 (stereo not drawn) [II-231, N-(1-(4-(6-(Trifluoromethyl)imidazo[1,2-b]pyridazin-3-yl)pyridin-2-yl)piperidin-3-yl)methanesulfonamide] | 
17 |  | > 5 µM | Cc1[nH]ncc1[C@@H]1CN(c2cc(-c3cnc4ccc(C(F)(F)F)nn34)ncn2)C[C@@H](C)O1 [II-766, (2R,6R)-2-methyl-6-(5-methyl-1H-pyrazol-4-yl)-4-(6-(6-(trifluoromethyl)imidazo[1,2-b]pyridazin-3-yl)pyrimidin-4-yl)morpholine] | IC50 (GCN2 kinase; [2]): 0.01 to 1 µM
18 |  |  | CC1CC(c2cn[nH]c2)C(C)N(c2ccnc(-c3cnc4cnc(C(F)(F)F)cn34)n2)C1 (single isomer, unassigned) [IV-311] | Ki (GCN2 kinase; [4]): < 0.01 µM; IC50 [1, 5]: < 0.5 µM
19 |  |  | C[C@H]1CN(c2ccnc(-c3cnc4cnc(C(F)(F)F)cn34)n2)[C@@H](C)[C@@H](c2cn[nH]c2)N1 [IV-224, 3-(4-((2S,3R,5S)-2,5-dimethyl-3-(1H-pyrazol-4-yl)piperazin-1-yl)pyrimidin-2-yl)-6-(trifluoromethyl)imidazo[1,2-a]pyrazine] | Ki (GCN2 kinase; [4]): < 0.01 µM; IC50 [1, 5]: < 0.5 µM
20 |  |  | FC(F)(F)c1cn2c(-c3nccc(N4CCOC(c5cn[nH]c5)C4)n3)cnc2s1 (stereo not drawn) [Compound V-15, 2-(1H-Pyrazol-4-yl)-4-[2-[2-(trifluoromethyl)imidazo[2,1-b]thiazol-5-yl]pyrimidin-4-yl]morpholine] | Ki (GCN2 kinase; compounds of Formula V, 4 nM GCN2 kinase): < 0.01 µM; IC50 ([1]; compounds of Formula V, U2OS cells, 10 μM borrelidin, 1 h, read-out: GCN2 Biomarker (IC50)): < 0.5 µM
21 | < 0.01 µM | < 0.5 µM | CC1CN(c2cc(-c3cnc4ccc(C(F)F)nn34)ccn2)CC(CNS(C)(=O)=O)C1(F)F (stereo not drawn) [II-78, N-((1-(4-(6-(Difluoromethyl)imidazo[1,2-b]pyridazin-3-yl)pyridin-2-yl)-4,4-difluoro-5-methylpiperidin-3-yl)methyl)methanesulfonamide] | 
22 |  | 0.5 to 5 µM | C[C@@H]1[C@@H](CNS(C)(=O)=O)N(C2CC2)CCN1c1cc(-c2cnc3ccc(C(F)F)nn23)ncn1 [II-770, N-(((2R,3R)-1-cyclopropyl-4-(6-(6-(difluoromethyl)imidazo[1,2-b]pyridazin-3-yl)pyrimidin-4-yl)-3-methylpiperazin-2-yl)methyl)methanesulfonamide] | IC50 (GCN2 kinase; [2]): 0.01 to 1 µM
23 | < 0.01 µM | < 0.5 µM | C[C@H]1[C@@H](CNS(C)(=O)=O)CC(F)(F)CN1c1cc(-c2cnc3ccc(C(F)F)nn23)ncn1 (single isomer, unassigned) [II-361] | 
24 | < 0.01 µM | < 0.5 µM | FC(F)(F)c1ccc2ncc(-c3ccnc(N4CCCC(c5c[nH]cn5)C4)c3)n2n1 (stereo not drawn) [II-741] | 
